One data set concerns the target T1, rat liver MAO-A (Rattus norvegicus, UniProt P21396).
T1 construct: from tissue; host or cells: rat liver
T1 sequence (P21396 1-526): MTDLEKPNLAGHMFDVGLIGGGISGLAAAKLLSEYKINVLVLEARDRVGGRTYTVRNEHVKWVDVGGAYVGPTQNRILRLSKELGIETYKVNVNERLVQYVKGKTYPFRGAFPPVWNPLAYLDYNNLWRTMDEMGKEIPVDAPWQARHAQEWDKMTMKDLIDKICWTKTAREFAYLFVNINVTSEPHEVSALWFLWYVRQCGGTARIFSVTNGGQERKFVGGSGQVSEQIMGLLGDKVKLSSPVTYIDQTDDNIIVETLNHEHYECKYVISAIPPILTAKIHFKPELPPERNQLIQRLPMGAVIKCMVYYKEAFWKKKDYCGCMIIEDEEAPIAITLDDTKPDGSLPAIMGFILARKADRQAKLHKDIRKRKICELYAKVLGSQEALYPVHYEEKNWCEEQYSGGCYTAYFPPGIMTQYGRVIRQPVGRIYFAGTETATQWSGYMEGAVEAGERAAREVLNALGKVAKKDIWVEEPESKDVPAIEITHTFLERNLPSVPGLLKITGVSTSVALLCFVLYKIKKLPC
The experiment in a line: In vitro inhibition of rat liver MAO-A. The data set is classed as biochemical. The method, then: […] The P2 fraction was prepared and was stored frozen until being thawed for use on the day of assay. Final concentrations of 50 μM [^14C]-serotonin (5-HT) and 10 μM [^14C]-phenylethylamine (PEA) were employed as specific substrates for MAO-A and MAO-B, respectively. Test compound inhibition was based on competition for oxidation of these radio-labeled substrates. MAO-A assay specificity was enhanced by inclusion of 0.1 μM deprenyl to prevent substrate oxidation by MAO-B. Likewise, MAO-B assays included 0.1 μM clorgyline to block MAO-A activity. […] Inhibition of enzymatic activities was expressed as IC50 and as the Ki, which was calculated using the Cheng-Prusoff equation.

For data set [1] the following is noted: 10, 20 and 40 mg twice daily for 14 days, healthy volunteers. The method, then: Methods: The study was a Phase I, single-center, randomized, parallel-group, multiple-dose, placebo-controlled, pharmacodynamic, pharmacokinetic and safety study in healthy volunteers. To obtain 24 enrolled subjects, screening procedures and inclusion/exclusion criteria were evaluated for 54 subjects during a variable screening period of up to 28 days. Once enrolled, subjects were randomized to either CX157 10 mg, 20 mg or 40 mg or matching placebo administered twice daily for 14 consecutive days.

For the next data set, the target named is T2, MAO-B (Homo sapiens, UniProt P27338).
T2 sequence (P27338 1-520): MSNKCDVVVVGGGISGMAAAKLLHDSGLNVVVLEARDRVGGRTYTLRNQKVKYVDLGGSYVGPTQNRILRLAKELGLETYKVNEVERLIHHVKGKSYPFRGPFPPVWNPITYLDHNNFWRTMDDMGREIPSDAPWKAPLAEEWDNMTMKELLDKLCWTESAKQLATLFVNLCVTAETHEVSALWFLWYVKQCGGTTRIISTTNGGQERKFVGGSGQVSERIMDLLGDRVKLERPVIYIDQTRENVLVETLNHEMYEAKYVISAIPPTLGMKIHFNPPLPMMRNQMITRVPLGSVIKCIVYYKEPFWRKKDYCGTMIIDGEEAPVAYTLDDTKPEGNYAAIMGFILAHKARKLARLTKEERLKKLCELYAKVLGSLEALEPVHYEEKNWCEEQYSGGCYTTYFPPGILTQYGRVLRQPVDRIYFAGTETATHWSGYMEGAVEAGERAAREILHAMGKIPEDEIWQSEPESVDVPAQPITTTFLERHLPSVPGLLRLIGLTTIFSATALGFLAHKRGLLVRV

Data set [2] can be described thus: Phase I modified release tablets BID pharmacokinetics. The data set is classed as in vivo, human. The note with it: for Cmax / AUC / concentration at 7 day: human, plasma, oral, 125 mg. The method, then: Methods: A total of 20 Subjects (16 on CX157 and 4 on placebo) were dosed with CX157 Modified Release Tablets, 125 mg BID (total daily dose of 250 mg) or placebo in Period 1 for 7 days. […] Subjects who were randomized to CX157 125 mg BID in Period 1 received CX157 175 mg BID in Period 2, after a washout of 7 days. Subjects randomized to placebo in Period 1 received placebo in Period 2, after a washout of 7 days. Blood samples for PK analysis were collected during both periods of the study.
Each oval, biconvex CX157 Film Coated Tablet, 125 mg has a white opaque film coating (Advantia™ Prime) and is stored long-term at controlled room temperature conditions [25° C. (77° F.); excursions 15-30° C. (59-86° F.)].
(§1) Each CX157 Modified Release Tablet, 175 mg is stored long-term at controlled room temperature conditions [25° C. (77° F.), excursions 15-30° C. (59-86° F.)]; the tablets are a modified caplet shape, pale pink in color, and plain on both sides.

The nature of data set [3]: Fed versus fasted pharmacokinetics of modified release tablet. The data set is classed as in vivo. The note with it: human, plasma, oral, 175 mg; fed and fasted; read-out: half-life, mean, range over treatments. The method, then:
Methods: A total of 18 subjects were to participate and receive a single dose of CX157 Modified Release Tablet, 175 mg in fed or fasted states according to a randomization schedule. There was a six to seven-day washout period between the two study drug administrations.
as §1

The next data set deals with T3, rat brain MAO-A (Rattus norvegicus, UniProt P21396).
T3 construct: prepared from brain homogenates of male Sprague-Dawley rats, served as the source of MAO-A enzymatic activity; from tissue
T3 sequence (P21396 1-526): T1 sequence (P21396 1-526)
The experiment in a line: In vitro inhibition of rat brain MAO-A. The data set is classed as biochemical. The method, then: Methods: The soluble extract of the mitochondrial enriched fraction (P2 pellet), which was prepared from brain homogenates of male Sprague-Dawley rats, served as the source of MAO-A enzymatic activity. The P2 fraction was prepared and was stored frozen until being thawed for use on the day of assay. Final concentrations of 50 μM [^14C]-serotonin (5-HT) and 10 μM [^14C]-phenylethylamine (PEA) were employed as specific substrates for MAO-A and MAO-B, respectively. Test compound inhibition was based on competition for oxidation of these radio-labeled substrates. MAO-A assay specificity was enhanced by inclusion of 0.1 μM deprenyl to prevent substrate oxidation by MAO-B. Likewise, MAO-B assays included 0.1 μM clorgyline to block MAO-A activity. […] Inhibition of enzymatic activities was expressed as IC50 and as the Ki, which was calculated using the Cheng-Prusoff equation.

Read-outs that look alike come from different tables or passages of the source. Some results are limits rather than exact numbers.

Consider `O=S1(=O)c2ccc(F)cc2Oc2cc(OCC(F)(F)F)ccc21` [CX157, 3-fluoro-7(2,2,2-trifluorethoxy)phenoxathiine-10,10-dioxide], for which the entries for the “Ki for CX157/Ki for RO-41-1049” value on rat liver MAO-A (Liver MAO-A) and at rat brain MAO-A (Brain MAO-A) were 0.126 and 0.006, respectively. Moreover, the IC50 against rat liver MAO-A (rat liver, 50 μM [14C]-5-HT) was 2.22 nM; on rat brain MAO-A (rat brain P2 extract, 50 μM [14C]-5-HT), 0.09 nM. The Ki amounted to 0.91 nM on rat liver MAO-A (rat liver, Cheng-Prusoff) and 0.09 nM on rat brain MAO-A (rat brain, Cheng-Prusoff). Further, in data set [1], the safety and tolerability result is “generally safe and well tolerated”. The “selectivity for MAO-A inhibition over MAO-B inhibition” value at MAO-B (human brain homogenates) is on record as more than 1000 fold. In addition, on MAO-B (tested concentration 10 μM), the MAO-B inhibition entry is recorded as “no detectable MAO-B inhibition”. Moreover, in data set [2] (125 mg BID, Day 7), the “fluctuation in CX157 concentrations during each 12-h dosing interval at steady state” value was found to be 4.6 fold. Also, the “accumulation, Day 7 versus Day 1 exposures” value in data set [2] (BID dosing with 125 mg MR tablets) amounted to 2.6 fold. The Cmax was determined as 134 ± 103 ng/mL in data set [2] (125 mg BID, Day 1, read-out: mean Cmax) and 231 ± 114 ng/mL in data set [2] (MR tablets 125 mg BID, Day 7, mean, read-out: Cmax). Besides, the AUC in data set [2] (12-hour AUC, 125 mg BID, Day 1) is 702 ± 500 ng·h/mL; in data set [2] (MR tablets 125 mg BID, Day 7, mean, read-out: AUCSS) it was 1280 ± 651 ng·h/mL. Besides, the concentration at 7 day in data set [2] (MR tablets 125 mg BID, Day 7, mean, read-out: CSS) was 107 ± 54 ng/mL; in data set [2] (MR tablets 125 mg BID, Day 7, mean, read-out: Cmin), 54.9 ± 32 ng/mL. In addition, the half-life in data set [3] fell in the range of 20.6 to 23.5 h. For the same compound, the “Ki fold lower than reference compound RO 41-1049” value on rat brain MAO-A (rat brain MAO-A) is listed as more than 10 fold.

Broadly, the IC50 is the concentration needed to halve the response being measured. As usually defined, the Ki is a dissociation constant, usually derived from enzyme kinetics or from competition with a known ligand. A high value points to lower affinity. Usually Cmax stands for the peak of the concentration-time curve. Broadly, the half-life is how long it takes for the measured level to halve.

For the origin of these results see US12263155B2, “Combinations of monoamine oxidase inhibitors and serotonin receptor agonists and their therapeutic use” (Remedi, Inc., priority 2022, dated 2025).
